Measured values from the supplement of paper PMC13380429.

Key:
Details in all cases: 72 h
Caco-2 [1] = experiment: drug sensitivity score (DSS) for viability; higher = more toxic; extreme values may be limits of the assay
HepG2 [2] = experiment: as above
Calu-3 [3] = experiment: as above
Vero E6 [4] = experiment: as above
U2OS [5] = experiment: as above
Caco-2 [6] = experiment: cell viability relative to DMSO; higher = less toxic
HepG2 [7] = experiment: as above
Calu-3 [8] = experiment: as above
Vero E6 [9] = experiment: as above
U2OS [10] = experiment: as above
Caco-2 [11] = experiment: relative viability EC50 (midpoint between 100% and the lowest measured viability); higher = less toxic
HepG2 [12] = experiment: as above
Calu-3 [13] = experiment: as above
Vero E6 [14] = experiment: as above
U2OS [15] = experiment: as above

Structure (SMILES): O=C(C[S+]([O-])C(c1ccccc1)c1ccccc1)NO (stereo not given) [adrafinil]
- drug sensitivity score (Caco-2 [1]): 0
- drug sensitivity score (HepG2 [2]): 0
- drug sensitivity score (Calu-3 [3]): 0
- drug sensitivity score (Vero E6 [4]): 0
- drug sensitivity score (U2OS [5]): 0
- cell viability (Caco-2 [6]; 1 nM): 93.8%
- cell viability (Caco-2 [6]; 10 nM): 91.1%
- cell viability (Caco-2 [6]; 100 nM): 91.6%
- cell viability (Caco-2 [6]; 1000 nM): 103%
- cell viability (Caco-2 [6]; 10000 nM): 101%
- cell viability (HepG2 [7]; 1 nM): 97.6%
- cell viability (HepG2 [7]; 10 nM): 88.7%
- cell viability (HepG2 [7]; 100 nM): 97.2%
- cell viability (HepG2 [7]; 1000 nM): 96.1%
- cell viability (HepG2 [7]; 10000 nM): 102%
- cell viability (Calu-3 [8]; 1 nM): 103%
- cell viability (Calu-3 [8]; 10 nM): 110%
- cell viability (Calu-3 [8]; 100 nM): 98.4%
- cell viability (Calu-3 [8]; 1000 nM): 107%
- cell viability (Calu-3 [8]; 10000 nM): 108%
- cell viability (Vero E6 [9]; 1 nM): 93.5%
- cell viability (Vero E6 [9]; 10 nM): 85.5%
- cell viability (Vero E6 [9]; 100 nM): 93.8%
- cell viability (Vero E6 [9]; 1000 nM): 93%
- cell viability (Vero E6 [9]; 10000 nM): 107%
- cell viability (U2OS [10]; 1 nM): 97.9%
- cell viability (U2OS [10]; 10 nM): 102%
- cell viability (U2OS [10]; 100 nM): 97.9%
- cell viability (U2OS [10]; 1000 nM): 107%
- cell viability (U2OS [10]; 10000 nM): 99.8%
- relative viability EC50 (Caco-2 [11]): > 10 µM
- relative viability EC50 (HepG2 [12]): > 10 µM
- relative viability EC50 (Calu-3 [13]): > 10 µM
- relative viability EC50 (Vero E6 [14]): > 10 µM
- relative viability EC50 (U2OS [15]): > 10 µM

Structure (SMILES): CC[C@H]1[C@@H]2C[C@H]3[C@@H]4N(C)c5ccccc5[C@]45C[C@@H]([C@@H]2[C@H]5O)N3[C@@H]1O [ajmaline]
- drug sensitivity score (Caco-2 [1]): 0.1
- drug sensitivity score (HepG2 [2]): 0
- drug sensitivity score (Calu-3 [3]): 0
- drug sensitivity score (Vero E6 [4]): 0
- drug sensitivity score (U2OS [5]): 0
- cell viability (Caco-2 [6]; 1 nM): 101%
- cell viability (Caco-2 [6]; 10 nM): 94%
- cell viability (Caco-2 [6]; 100 nM): 94.9%
- cell viability (Caco-2 [6]; 1000 nM): 90.6%
- cell viability (Caco-2 [6]; 10000 nM): 88%
- cell viability (HepG2 [7]; 1 nM): 92%
- cell viability (HepG2 [7]; 10 nM): 90%
- cell viability (HepG2 [7]; 100 nM): 95%
- cell viability (HepG2 [7]; 1000 nM): 105%
- cell viability (HepG2 [7]; 10000 nM): 94.7%
- cell viability (Calu-3 [8]; 1 nM): 101%
- cell viability (Calu-3 [8]; 10 nM): 108%
- cell viability (Calu-3 [8]; 100 nM): 91.9%
- cell viability (Calu-3 [8]; 1000 nM): 104%
- cell viability (Calu-3 [8]; 10000 nM): 108%
- cell viability (Vero E6 [9]; 1 nM): 96.1%
- cell viability (Vero E6 [9]; 10 nM): 95%
- cell viability (Vero E6 [9]; 100 nM): 105%
- cell viability (Vero E6 [9]; 1000 nM): 99.5%
- cell viability (Vero E6 [9]; 10000 nM): 88.9%
- cell viability (U2OS [10]; 1 nM): 96%
- cell viability (U2OS [10]; 10 nM): 101%
- cell viability (U2OS [10]; 100 nM): 95.7%
- cell viability (U2OS [10]; 1000 nM): 102%
- cell viability (U2OS [10]; 10000 nM): 97.5%
- relative viability EC50 (Caco-2 [11]): > 10 µM
- relative viability EC50 (HepG2 [12]): > 10 µM
- relative viability EC50 (Calu-3 [13]): > 10 µM
- relative viability EC50 (Vero E6 [14]): > 10 µM
- relative viability EC50 (U2OS [15]): > 10 µM

Structure (SMILES): CNC(=O)c1ccc(N2C(=S)N(c3cnc(C#N)c(C(F)(F)F)c3)C(=O)C23CCC3)cc1F [apalutamide]
- drug sensitivity score (Caco-2 [1]): 0
- drug sensitivity score (HepG2 [2]): 0
- drug sensitivity score (Calu-3 [3]): 0
- drug sensitivity score (Vero E6 [4]): 0
- drug sensitivity score (U2OS [5]): 0
- cell viability (Caco-2 [6]; 1 nM): 104%
- cell viability (Caco-2 [6]; 10 nM): 107%
- cell viability (Caco-2 [6]; 100 nM): 94.1%
- cell viability (Caco-2 [6]; 1000 nM): 90.6%
- cell viability (Caco-2 [6]; 10000 nM): 93.5%
- cell viability (HepG2 [7]; 1 nM): 99.5%
- cell viability (HepG2 [7]; 10 nM): 107%
- cell viability (HepG2 [7]; 100 nM): 112%
- cell viability (HepG2 [7]; 1000 nM): 109%
- cell viability (HepG2 [7]; 10000 nM): 104%
- cell viability (Calu-3 [8]; 1 nM): 106%
- cell viability (Calu-3 [8]; 10 nM): 103%
- cell viability (Calu-3 [8]; 100 nM): 103%
- cell viability (Calu-3 [8]; 1000 nM): 102%
- cell viability (Calu-3 [8]; 10000 nM): 97.1%
- cell viability (Vero E6 [9]; 1 nM): 104%
- cell viability (Vero E6 [9]; 10 nM): 107%
- cell viability (Vero E6 [9]; 100 nM): 99.3%
- cell viability (Vero E6 [9]; 1000 nM): 105%
- cell viability (Vero E6 [9]; 10000 nM): 98.8%
- cell viability (U2OS [10]; 1 nM): 98%
- cell viability (U2OS [10]; 10 nM): 98.6%
- cell viability (U2OS [10]; 100 nM): 96.7%
- cell viability (U2OS [10]; 1000 nM): 97.7%
- cell viability (U2OS [10]; 10000 nM): 96.9%
- relative viability EC50 (Caco-2 [11]): > 10 µM
- relative viability EC50 (HepG2 [12]): > 10 µM
- relative viability EC50 (Calu-3 [13]): > 10 µM
- relative viability EC50 (Vero E6 [14]): > 10 µM
- relative viability EC50 (U2OS [15]): > 10 µM

Structure (SMILES): C#CCOC(=O)C1=CCCN(C)C1 [arecaidine-propargyl-ester]
- drug sensitivity score (Caco-2 [1]): 0
- drug sensitivity score (HepG2 [2]): 0
- drug sensitivity score (Calu-3 [3]): 0
- drug sensitivity score (Vero E6 [4]): 0
- drug sensitivity score (U2OS [5]): 0
- cell viability (Caco-2 [6]; 1 nM): 91.4%
- cell viability (Caco-2 [6]; 10 nM): 98.4%
- cell viability (Caco-2 [6]; 100 nM): 94.4%
- cell viability (Caco-2 [6]; 1000 nM): 98%
- cell viability (Caco-2 [6]; 10000 nM): 103%
- cell viability (HepG2 [7]; 1 nM): 95.1%
- cell viability (HepG2 [7]; 10 nM): 95.5%
- cell viability (HepG2 [7]; 100 nM): 101%
- cell viability (HepG2 [7]; 1000 nM): 102%
- cell viability (HepG2 [7]; 10000 nM): 102%
- cell viability (Calu-3 [8]; 1 nM): 100%
- cell viability (Calu-3 [8]; 10 nM): 103%
- cell viability (Calu-3 [8]; 100 nM): 95.2%
- cell viability (Calu-3 [8]; 1000 nM): 100%
- cell viability (Calu-3 [8]; 10000 nM): 95.6%
- cell viability (Vero E6 [9]; 1 nM): 97.4%
- cell viability (Vero E6 [9]; 10 nM): 99%
- cell viability (Vero E6 [9]; 100 nM): 95%
- cell viability (Vero E6 [9]; 1000 nM): 98.4%
- cell viability (Vero E6 [9]; 10000 nM): 107%
- cell viability (U2OS [10]; 1 nM): 98%
- cell viability (U2OS [10]; 10 nM): 93.2%
- cell viability (U2OS [10]; 100 nM): 99.3%
- cell viability (U2OS [10]; 1000 nM): 102%
- cell viability (U2OS [10]; 10000 nM): 101%
- relative viability EC50 (Caco-2 [11]): > 10 µM
- relative viability EC50 (HepG2 [12]): > 10 µM
- relative viability EC50 (Calu-3 [13]): > 10 µM
- relative viability EC50 (Vero E6 [14]): > 10 µM
- relative viability EC50 (U2OS [15]): > 10 µM

Structure (SMILES): NC(=O)[C@@H](CCC(F)(F)F)N(Cc1ccc(-c2ncon2)cc1F)S(=O)(=O)c1ccc(Cl)cc1 [avagacestat]
- drug sensitivity score (Caco-2 [1]): 1.4
- drug sensitivity score (HepG2 [2]): 0
- drug sensitivity score (Calu-3 [3]): 0
- drug sensitivity score (Vero E6 [4]): 0
- drug sensitivity score (U2OS [5]): 0
- cell viability (Caco-2 [6]; 1 nM): 103%
- cell viability (Caco-2 [6]; 10 nM): 99.9%
- cell viability (Caco-2 [6]; 100 nM): 95.9%
- cell viability (Caco-2 [6]; 1000 nM): 93.2%
- cell viability (Caco-2 [6]; 10000 nM): 77.1%
- cell viability (HepG2 [7]; 1 nM): 96.6%
- cell viability (HepG2 [7]; 10 nM): 102%
- cell viability (HepG2 [7]; 100 nM): 94.9%
- cell viability (HepG2 [7]; 1000 nM): 105%
- cell viability (HepG2 [7]; 10000 nM): 87.9%
- cell viability (Calu-3 [8]; 1 nM): 96.2%
- cell viability (Calu-3 [8]; 10 nM): 105%
- cell viability (Calu-3 [8]; 100 nM): 106%
- cell viability (Calu-3 [8]; 1000 nM): 95.2%
- cell viability (Calu-3 [8]; 10000 nM): 105%
- cell viability (Vero E6 [9]; 1 nM): 107%
- cell viability (Vero E6 [9]; 10 nM): 110%
- cell viability (Vero E6 [9]; 100 nM): 106%
- cell viability (Vero E6 [9]; 1000 nM): 109%
- cell viability (Vero E6 [9]; 10000 nM): 99.2%
- cell viability (U2OS [10]; 1 nM): 99.1%
- cell viability (U2OS [10]; 10 nM): 94.9%
- cell viability (U2OS [10]; 100 nM): 102%
- cell viability (U2OS [10]; 1000 nM): 93.1%
- cell viability (U2OS [10]; 10000 nM): 96.5%
- relative viability EC50 (Caco-2 [11]): > 10 µM
- relative viability EC50 (HepG2 [12]): > 10 µM
- relative viability EC50 (Calu-3 [13]): > 10 µM
- relative viability EC50 (Vero E6 [14]): > 10 µM
- relative viability EC50 (U2OS [15]): > 10 µM

Structure (SMILES): O=C(c1cc2ccccc2o1)N1CCN(Cc2ccccc2)CC1 [befuraline]
- drug sensitivity score (Caco-2 [1]): 0
- drug sensitivity score (HepG2 [2]): 0
- drug sensitivity score (Calu-3 [3]): 0
- drug sensitivity score (Vero E6 [4]): 0
- drug sensitivity score (U2OS [5]): 0
- cell viability (Caco-2 [6]; 1 nM): 85%
- cell viability (Caco-2 [6]; 10 nM): 91%
- cell viability (Caco-2 [6]; 100 nM): 88.8%
- cell viability (Caco-2 [6]; 1000 nM): 99.2%
- cell viability (Caco-2 [6]; 10000 nM): 84.4%
- cell viability (HepG2 [7]; 1 nM): 102%
- cell viability (HepG2 [7]; 10 nM): 97%
- cell viability (HepG2 [7]; 100 nM): 101%
- cell viability (HepG2 [7]; 1000 nM): 94.1%
- cell viability (HepG2 [7]; 10000 nM): 102%
- cell viability (Calu-3 [8]; 1 nM): 94.1%
- cell viability (Calu-3 [8]; 10 nM): 97.8%
- cell viability (Calu-3 [8]; 100 nM): 100%
- cell viability (Calu-3 [8]; 1000 nM): 93.8%
- cell viability (Calu-3 [8]; 10000 nM): 90.7%
- cell viability (Vero E6 [9]; 1 nM): 113%
- cell viability (Vero E6 [9]; 10 nM): 97.2%
- cell viability (Vero E6 [9]; 100 nM): 106%
- cell viability (Vero E6 [9]; 1000 nM): 103%
- cell viability (Vero E6 [9]; 10000 nM): 96.7%
- cell viability (U2OS [10]; 1 nM): 95.8%
- cell viability (U2OS [10]; 10 nM): 97.6%
- cell viability (U2OS [10]; 100 nM): 95.1%
- cell viability (U2OS [10]; 1000 nM): 98%
- cell viability (U2OS [10]; 10000 nM): 94.6%
- relative viability EC50 (Caco-2 [11]): > 10 µM
- relative viability EC50 (HepG2 [12]): > 10 µM
- relative viability EC50 (Calu-3 [13]): > 10 µM
- relative viability EC50 (Vero E6 [14]): > 10 µM
- relative viability EC50 (U2OS [15]): > 10 µM
